Data taken from the supplement of paper PMC10627819.

What was measured:
Assay in all cases: fitness (endpoint OD595 vs no drug) (fraction); higher = more growth
B. subtilis 168 = system: B. subtilis 168
Outline: (§1)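 Background-subtracted growth curves were the basis for fitness, taken as the optical density at entry into stationary phase over the robust mean of no-drug control wells. A cap of 1 was applied. The curves came from OD595 readings every 30 min for 14 h at 37 °C, in 384-well plates seeded at OD595 0.01 with 30 µl, or 55 µl for S. pneumoniae.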

S. pneumoniae D39V = system: S. pneumoniae D39V
Outline: as §1

S. aureus Newman = system: S. aureus Newman
Outline: as §1

CN(C)[C@@H]1C(O)=C(C(N)=O)C(=O)[C@@]2(O)C(O)=C3C(=O)c4c(O)ccc(Cl)c4[C@@](C)(O)[C@H]3C[C@@H]12 [Chlortetracycline] + CN(C)c1cc(NC(=O)CNC(C)(C)C)c(O)c2c1C[C@H]1C[C@H]3[C@H](N(C)C)C(O)=C(C(N)=O)C(=O)[C@@]3(O)C(O)=C1C2=O [Tigecycline]
fitness (B. subtilis 168; first compound 0.0475 µg/mL, partner 0.039 µg/mL): 0.924
fitness (B. subtilis 168; first compound 0.0475 µg/mL, partner 0.078 µg/mL): 0.873
fitness (B. subtilis 168; first compound 0.0475 µg/mL, partner 0.125 µg/mL, one replicate): 0.996
fitness (B. subtilis 168; first compound 0.0475 µg/mL, partner 0.156 µg/mL): 0.823
fitness (B. subtilis 168; first compound 0.0475 µg/mL, partner 0.25 µg/mL, one replicate): 0.915
fitness (B. subtilis 168; first compound 0.0475 µg/mL, partner 0.5 µg/mL, one replicate): 0.933
fitness (B. subtilis 168; first compound 0.095 µg/mL, partner 0.039 µg/mL): 0.828
fitness (B. subtilis 168; first compound 0.095 µg/mL, partner 0.078 µg/mL): 0.781
fitness (B. subtilis 168; first compound 0.095 µg/mL, partner 0.125 µg/mL, one replicate): 0.974
fitness (B. subtilis 168; first compound 0.095 µg/mL, partner 0.156 µg/mL): 0.784
fitness (B. subtilis 168; first compound 0.095 µg/mL, partner 0.25 µg/mL, one replicate): 0.874
fitness (B. subtilis 168; first compound 0.095 µg/mL, partner 0.5 µg/mL, one replicate): 0.879
fitness (B. subtilis 168; first compound 0.19 µg/mL, partner 0.039 µg/mL): 0.651
fitness (B. subtilis 168; first compound 0.19 µg/mL, partner 0.078 µg/mL): 0.605
fitness (B. subtilis 168; first compound 0.19 µg/mL, partner 0.125 µg/mL, one replicate): 0.827
fitness (B. subtilis 168; first compound 0.19 µg/mL, partner 0.156 µg/mL): 0.5
fitness (B. subtilis 168; first compound 0.19 µg/mL, partner 0.25 µg/mL, one replicate): 0.763
fitness (B. subtilis 168; first compound 0.19 µg/mL, partner 0.5 µg/mL, one replicate): 0.84
fitness (S. pneumoniae D39V; first compound 0.012 µg/mL, partner 0.65 µg/mL): 0.943
fitness (S. pneumoniae D39V; first compound 0.012 µg/mL, partner 1.3 µg/mL): 0.98
fitness (S. pneumoniae D39V; first compound 0.012 µg/mL, partner 2.6 µg/mL): 0.866
fitness (S. pneumoniae D39V; first compound 0.024 µg/mL, partner 0.65 µg/mL): 0.949
fitness (S. pneumoniae D39V; first compound 0.024 µg/mL, partner 1.3 µg/mL): 0.909
fitness (S. pneumoniae D39V; first compound 0.024 µg/mL, partner 2.6 µg/mL): 0.862
fitness (S. pneumoniae D39V; first compound 0.048 µg/mL, partner 0.65 µg/mL): 0.867
fitness (S. pneumoniae D39V; first compound 0.048 µg/mL, partner 1.3 µg/mL): 0.814
fitness (S. pneumoniae D39V; first compound 0.048 µg/mL, partner 2.6 µg/mL): 0.815
fitness (S. pneumoniae D39V; first compound 0.375 µg/mL, partner 0.325 µg/mL): 0.0315
fitness (S. pneumoniae D39V; first compound 0.375 µg/mL, partner 0.65 µg/mL): 0.0403
fitness (S. pneumoniae D39V; first compound 0.375 µg/mL, partner 1.3 µg/mL): 0.0368
fitness (S. pneumoniae D39V; first compound 0.75 µg/mL, partner 0.325 µg/mL): 0.0625
fitness (S. pneumoniae D39V; first compound 0.75 µg/mL, partner 0.65 µg/mL): 0.0555
fitness (S. pneumoniae D39V; first compound 0.75 µg/mL, partner 1.3 µg/mL): 0.0691
fitness (S. pneumoniae D39V; first compound 1.5 µg/mL, partner 0.325 µg/mL): 0.0404
fitness (S. pneumoniae D39V; first compound 1.5 µg/mL, partner 0.65 µg/mL): 0.0304
fitness (S. pneumoniae D39V; first compound 1.5 µg/mL, partner 1.3 µg/mL): 0.0788

COc1cccc2c1C(=O)c1c(O)c3c(c(O)c1C2=O)C[C@@](O)(C(=O)CO)C[C@@H]3O[C@H]1C[C@H](N)[C@H](O)[C@H](C)O1 [Doxorubicin] + CC1(C)S[C@@H]2[C@H](NC(=O)Cc3ccccc3)C(=O)N2[C@H]1C(=O)O [Penicillin G]
fitness (S. aureus Newman; first compound 0.625 µg/mL, partner 0.0195 µg/mL): 0.705
fitness (S. aureus Newman; first compound 0.625 µg/mL, partner 0.039 µg/mL): 0.727
fitness (S. aureus Newman; first compound 0.625 µg/mL, partner 0.078 µg/mL): 0.752
fitness (S. aureus Newman; first compound 1.25 µg/mL, partner 0.0195 µg/mL): 0.711
fitness (S. aureus Newman; first compound 1.25 µg/mL, partner 0.039 µg/mL): 0.718
fitness (S. aureus Newman; first compound 1.25 µg/mL, partner 0.078 µg/mL): 0.72
fitness (S. aureus Newman; first compound 2.5 µg/mL, partner 0.0195 µg/mL): 0.698
fitness (S. aureus Newman; first compound 2.5 µg/mL, partner 0.039 µg/mL): 0.734
fitness (S. aureus Newman; first compound 2.5 µg/mL, partner 0.078 µg/mL): 0.692

CC1(C)S[C@@H]2[C@H](NC(=O)Cc3ccccc3)C(=O)N2[C@H]1C(=O)O [Penicillin G] + C[n+]1ccc(-c2cc[n+](C)cc2)cc1 [Paraquat]
fitness (S. aureus Newman; first compound 0.0195 µg/mL, partner 1.25 µg/mL): 0.827
fitness (S. aureus Newman; first compound 0.0195 µg/mL, partner 2.5 µg/mL): 0.863
fitness (S. aureus Newman; first compound 0.0195 µg/mL, partner 5 µg/mL): 0.875
fitness (S. aureus Newman; first compound 0.039 µg/mL, partner 1.25 µg/mL): 0.832
fitness (S. aureus Newman; first compound 0.039 µg/mL, partner 2.5 µg/mL): 0.871
fitness (S. aureus Newman; first compound 0.039 µg/mL, partner 5 µg/mL): 0.807
fitness (S. aureus Newman; first compound 0.078 µg/mL, partner 1.25 µg/mL): 0.876
fitness (S. aureus Newman; first compound 0.078 µg/mL, partner 2.5 µg/mL): 0.827
fitness (S. aureus Newman; first compound 0.078 µg/mL, partner 5 µg/mL): 0.819

C[C@@H]1O[C@@H]1P(=O)(O)O [Fosfomycin] + CC1(C)S[C@@H]2[C@H](NC(=O)Cc3ccccc3)C(=O)N2[C@H]1C(=O)O [Penicillin G]
fitness (S. aureus Newman; first compound 0.781 µg/mL, partner 0.0195 µg/mL): 0.582
fitness (S. aureus Newman; first compound 0.781 µg/mL, partner 0.039 µg/mL): 0.583
fitness (S. aureus Newman; first compound 0.781 µg/mL, partner 0.078 µg/mL): 0.54
fitness (S. aureus Newman; first compound 1.562 µg/mL, partner 0.0195 µg/mL): 0.498
fitness (S. aureus Newman; first compound 1.562 µg/mL, partner 0.039 µg/mL): 0.516
fitness (S. aureus Newman; first compound 1.562 µg/mL, partner 0.078 µg/mL): 0.508
fitness (S. aureus Newman; first compound 3.124 µg/mL, partner 0.0195 µg/mL): 0.167
fitness (S. aureus Newman; first compound 3.124 µg/mL, partner 0.039 µg/mL): 0.171
fitness (S. aureus Newman; first compound 3.124 µg/mL, partner 0.078 µg/mL): 0.153

C[C@H]1c2cccc(O)c2C(=O)C2=C(O)[C@]3(O)C(=O)C(C(N)=O)=C(O)[C@@H](N(C)C)[C@@H]3[C@@H](O)[C@@H]21 [Doxycycline] + COc1cccc2c1C(=O)c1c(O)c3c(c(O)c1C2=O)C[C@@](O)(C(=O)CO)C[C@@H]3O[C@H]1C[C@H](N)[C@H](O)[C@H](C)O1 [Doxorubicin]
fitness (B. subtilis 168; first compound 0.02 µg/mL, partner 0.625 µg/mL): 0.915
fitness (B. subtilis 168; first compound 0.02 µg/mL, partner 1.25 µg/mL): 0.854
fitness (B. subtilis 168; first compound 0.02 µg/mL, partner 2.5 µg/mL): 0.695
fitness (B. subtilis 168; first compound 0.04 µg/mL, partner 0.625 µg/mL): 0.722
fitness (B. subtilis 168; first compound 0.04 µg/mL, partner 1.25 µg/mL): 0.712
fitness (B. subtilis 168; first compound 0.04 µg/mL, partner 2.5 µg/mL): 0.58
fitness (S. pneumoniae D39V; first compound 0.003875 µg/mL, partner 0.25 µg/mL, one replicate): 0.916
fitness (S. pneumoniae D39V; first compound 0.003875 µg/mL, partner 0.5 µg/mL, one replicate): 0.914
fitness (S. pneumoniae D39V; first compound 0.003875 µg/mL, partner 1 µg/mL, one replicate): 0.887
fitness (S. pneumoniae D39V; first compound 0.00775 µg/mL, partner 0.25 µg/mL, one replicate): 0.885
fitness (S. pneumoniae D39V; first compound 0.00775 µg/mL, partner 0.5 µg/mL, one replicate): 0.891
fitness (S. pneumoniae D39V; first compound 0.00775 µg/mL, partner 1 µg/mL, one replicate): 0.848
fitness (S. pneumoniae D39V; first compound 0.0155 µg/mL, partner 0.25 µg/mL): 0.833
fitness (S. pneumoniae D39V; first compound 0.0155 µg/mL, partner 0.5 µg/mL): 0.826
fitness (S. pneumoniae D39V; first compound 0.0155 µg/mL, partner 1 µg/mL): 0.814

CO/N=C(\C(=O)N[C@@H]1C(=O)N2C(C(=O)O)=C(COC(N)=O)CS[C@H]12)c1ccco1 [Cefuroxime] + CO/N=C(\C(=O)N[C@@H]1C(=O)N2C(C(=O)[O-])=C(C[N+]3(C)CCCC3)CS[C@H]12)c1csc(N)n1 [Cefepime]
fitness (S. aureus Newman; first compound 0.04875 µg/mL, partner 0.125 µg/mL, one replicate): 0.984
fitness (S. aureus Newman; first compound 0.04875 µg/mL, partner 0.25 µg/mL, one replicate): 0.871
fitness (S. aureus Newman; first compound 0.04875 µg/mL, partner 0.5 µg/mL, one replicate): 0.88
fitness (S. aureus Newman; first compound 0.0975 µg/mL, partner 0.125 µg/mL, one replicate): 0.841
fitness (S. aureus Newman; first compound 0.0975 µg/mL, partner 0.25 µg/mL, one replicate): 0.821
fitness (S. aureus Newman; first compound 0.0975 µg/mL, partner 0.5 µg/mL, one replicate): 0.731
fitness (S. aureus Newman; first compound 0.195 µg/mL, partner 0.125 µg/mL, one replicate): 0.925
fitness (S. aureus Newman; first compound 0.195 µg/mL, partner 0.25 µg/mL, one replicate): 0.922
fitness (S. aureus Newman; first compound 0.195 µg/mL, partner 0.5 µg/mL, one replicate): 0.864
